According to patent US6780397B2, “Biomolecule conjugation strategy using novel water-soluble phosphine-based chelating agents” (Curators of the University of Missouri, priority 1998, dated 2004):

Experiment: Stability of —PH2 compounds under storage and reaction conditions
Type: physicochemical
Source text: As a result of working with the Br(CH2)3 PH2 intermediate, it was recognized that the intermediate was unexpectedly stable under a variety of storage and reaction conditions.
Furthermore, the reactivity of the —PH2 groups in these compounds toward molecules containing a wide spectrum of functional groups (including carboxylic acids, amines, thiols, and proteins) was remarkably low or non-measurable.

Compound	stability to reaction conditions of solid phase peptide synthesis (HBTU, piperidine, solutions in DMF, trifluoroacetic acid wash)	oxidation of —PH2 groups (during SPPS and analysis)	stability profile (wider range of chemical conditions than used with the Br(CH2)3PH2 intermediate)	stability under storage and reaction conditions (variety of solvents, wide pH range and temperature range)
O=C(O)CCCCC(CCSCCCP)SCCCP (stereo not shown) [(PH2)2S2—COOH, H2P(CH2)3SCH2CH2CH((CH2)4COOH)S(CH2)3PH2]	stable	resistant to oxidation	much improved stability profile	
PCCCBr.[HH] [Br(CH2)3 PH2, 3-bromo-propyl phosphine hydride]				reasonably stable
